Source: article PMC4310350 (Drug Design, Development and Therapy, 2015)
“Also recorded” adds a separate entry of the source. Where two headings read alike, the source gives them in different places.

Legend:
OAT3 = target: T1, OAT3 (Homo sapiens, UniProt Q8TCC7); experiment: Uptake in HEK293 cells overexpressing OAT3; format: in vitro ADME
T1 sequence (Q8TCC7 1-542): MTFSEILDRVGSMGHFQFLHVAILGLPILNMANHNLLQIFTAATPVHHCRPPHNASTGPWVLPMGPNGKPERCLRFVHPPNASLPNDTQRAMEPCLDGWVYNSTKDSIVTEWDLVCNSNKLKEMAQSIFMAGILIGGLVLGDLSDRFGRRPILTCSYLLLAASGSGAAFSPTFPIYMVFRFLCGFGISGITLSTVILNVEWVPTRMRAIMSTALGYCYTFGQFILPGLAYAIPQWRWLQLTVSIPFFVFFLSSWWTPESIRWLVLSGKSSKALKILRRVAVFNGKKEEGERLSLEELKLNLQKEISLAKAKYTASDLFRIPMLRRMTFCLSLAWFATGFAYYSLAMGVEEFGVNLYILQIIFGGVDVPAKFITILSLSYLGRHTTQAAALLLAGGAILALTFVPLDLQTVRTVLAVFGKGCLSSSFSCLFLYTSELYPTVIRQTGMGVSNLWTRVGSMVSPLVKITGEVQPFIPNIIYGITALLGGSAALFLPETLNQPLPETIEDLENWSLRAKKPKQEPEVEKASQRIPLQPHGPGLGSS

OCT1 [1] = target: T2, OCT1 (Homo sapiens, UniProt O15245); experiment: Uptake in HEK293 cells overexpressing OCT1; format: in vitro ADME; settings: OCT1, influx
T2 sequence (O15245 1-554): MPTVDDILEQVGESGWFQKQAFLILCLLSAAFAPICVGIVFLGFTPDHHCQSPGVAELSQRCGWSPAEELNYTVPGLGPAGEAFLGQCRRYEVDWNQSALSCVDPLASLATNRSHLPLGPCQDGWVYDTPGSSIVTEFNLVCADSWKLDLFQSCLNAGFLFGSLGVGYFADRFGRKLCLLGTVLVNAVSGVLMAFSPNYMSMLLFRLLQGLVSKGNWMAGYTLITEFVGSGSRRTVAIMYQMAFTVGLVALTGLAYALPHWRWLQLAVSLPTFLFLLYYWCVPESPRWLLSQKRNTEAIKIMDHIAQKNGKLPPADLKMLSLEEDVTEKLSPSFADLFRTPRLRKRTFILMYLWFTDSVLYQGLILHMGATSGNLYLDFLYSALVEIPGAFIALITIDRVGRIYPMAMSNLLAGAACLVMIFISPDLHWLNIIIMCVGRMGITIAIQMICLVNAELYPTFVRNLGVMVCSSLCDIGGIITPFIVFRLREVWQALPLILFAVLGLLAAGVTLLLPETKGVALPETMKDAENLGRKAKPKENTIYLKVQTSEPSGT

BCRP [2] = target: T3, BCRP (Homo sapiens, UniProt Q9UNQ0); experiment: A-to-B and B-to-A transport in LLC-PK1 cells overexpressing BCRP; format: in vitro ADME; settings: BCRP, efflux
T3 sequence (Q9UNQ0 1-655): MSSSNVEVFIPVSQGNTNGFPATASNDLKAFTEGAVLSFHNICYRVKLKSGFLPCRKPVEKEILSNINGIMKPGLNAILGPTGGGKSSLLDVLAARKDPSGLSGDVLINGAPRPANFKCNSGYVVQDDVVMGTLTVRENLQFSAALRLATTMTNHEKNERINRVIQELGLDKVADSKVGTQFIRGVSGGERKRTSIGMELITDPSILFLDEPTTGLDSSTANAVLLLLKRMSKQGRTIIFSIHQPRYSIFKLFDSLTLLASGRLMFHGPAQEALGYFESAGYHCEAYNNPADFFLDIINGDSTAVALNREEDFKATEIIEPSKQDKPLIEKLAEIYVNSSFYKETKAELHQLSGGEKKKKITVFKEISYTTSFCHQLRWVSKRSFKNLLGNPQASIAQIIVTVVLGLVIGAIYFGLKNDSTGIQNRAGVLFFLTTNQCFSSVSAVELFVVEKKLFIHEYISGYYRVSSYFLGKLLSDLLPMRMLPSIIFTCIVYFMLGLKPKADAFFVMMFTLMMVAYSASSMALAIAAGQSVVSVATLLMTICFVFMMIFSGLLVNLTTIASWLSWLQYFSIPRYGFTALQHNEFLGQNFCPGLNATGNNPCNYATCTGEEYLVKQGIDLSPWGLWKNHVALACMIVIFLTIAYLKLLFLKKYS

OCT1 [3] = target: T2, OCT1; experiment: Inhibitory effect of catalposide on OCT1 transport activity; format: in vitro ADME; settings: probe 0.1 μM [3H]MPP+, catalposide 0–100 μM
P-gp = P-gp (Homo sapiens, UniProt P08183); experiment: Inhibitory effect of catalposide on P-gp transport activity; format: in vitro ADME; settings: probe 0.1 μM [3H]digoxin, catalposide 1–100 μM
P-gp, sequence (P08183 whole entry): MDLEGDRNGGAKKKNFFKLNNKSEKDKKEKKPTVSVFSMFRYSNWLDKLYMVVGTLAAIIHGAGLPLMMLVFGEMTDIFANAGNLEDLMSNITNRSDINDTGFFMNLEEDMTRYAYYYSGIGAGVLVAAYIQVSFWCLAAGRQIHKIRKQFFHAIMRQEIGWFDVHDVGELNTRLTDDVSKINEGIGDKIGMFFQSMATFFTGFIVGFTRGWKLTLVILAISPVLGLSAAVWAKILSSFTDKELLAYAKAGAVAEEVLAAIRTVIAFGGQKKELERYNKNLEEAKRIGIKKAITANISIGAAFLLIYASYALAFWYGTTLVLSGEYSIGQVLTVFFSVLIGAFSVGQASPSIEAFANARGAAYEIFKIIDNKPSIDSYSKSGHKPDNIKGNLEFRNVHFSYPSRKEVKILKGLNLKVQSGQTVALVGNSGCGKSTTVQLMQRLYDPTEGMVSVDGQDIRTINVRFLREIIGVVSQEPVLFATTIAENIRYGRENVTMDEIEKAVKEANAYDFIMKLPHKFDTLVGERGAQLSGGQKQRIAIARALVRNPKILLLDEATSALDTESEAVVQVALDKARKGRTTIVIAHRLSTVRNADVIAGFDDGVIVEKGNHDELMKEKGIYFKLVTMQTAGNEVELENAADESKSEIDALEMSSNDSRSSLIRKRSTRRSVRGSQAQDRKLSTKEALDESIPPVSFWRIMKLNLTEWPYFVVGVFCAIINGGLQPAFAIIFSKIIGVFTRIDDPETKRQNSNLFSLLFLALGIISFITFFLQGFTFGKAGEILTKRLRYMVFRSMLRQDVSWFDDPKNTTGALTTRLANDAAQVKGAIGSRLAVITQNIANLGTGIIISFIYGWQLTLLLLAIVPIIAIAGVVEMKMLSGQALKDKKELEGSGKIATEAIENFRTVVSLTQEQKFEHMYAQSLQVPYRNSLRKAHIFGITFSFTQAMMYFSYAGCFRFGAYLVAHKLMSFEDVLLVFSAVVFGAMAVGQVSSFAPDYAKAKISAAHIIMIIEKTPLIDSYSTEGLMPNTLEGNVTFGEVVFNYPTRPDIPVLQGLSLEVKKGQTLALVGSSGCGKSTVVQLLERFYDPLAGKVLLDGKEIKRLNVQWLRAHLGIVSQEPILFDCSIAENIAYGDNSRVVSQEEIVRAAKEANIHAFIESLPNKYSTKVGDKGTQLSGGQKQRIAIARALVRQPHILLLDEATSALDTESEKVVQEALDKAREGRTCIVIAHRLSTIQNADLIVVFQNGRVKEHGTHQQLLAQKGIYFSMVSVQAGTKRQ

BCRP [4] = target: T3, BCRP; experiment: Inhibitory effect of catalposide on BCRP transport activity; format: in vitro ADME; settings: probe 0.1 μM [3H]ES, catalposide 1–100 μM
[5] = Pharmacokinetics in rats after intravenous administration; format: in vivo; settings: from the cited clearance values
[6] = rats, cited from earlier work
[7] = 3-hour incubation in human plasma; cited from earlier work
[8] = rat liver microsomes in the presence of NADPH; cited from earlier work
[9] = human liver microsomes in the presence of NADPH; cited from earlier work
[10] = test system: suppression of cytokines, antioxidative effect, and PPAR-α activation; settings: in vitro cell system; cited from earlier work
[11] = test system: colitis induced by trinitrobenzene sulfonic acid; settings: mice, cited from earlier work

O=C(O[C@H]1[C@@H]2C=CO[C@@H](O[C@@H]3O[C@H](CO)[C@@H](O)[C@H](O)[C@H]3O)[C@@H]2[C@@]2(CO)O[C@@H]12)c1ccc(O)cc1 [catalposide]
Clint for OAT3 relative to OATP1B1 (OAT3; OAT3 vs OATP1B1): 31.8 fold
Clint for OAT3 relative to OATP1B3 (OAT3; OAT3 vs OATP1B3): 32.7 fold
Substrate (OCT1 [1]): not involved
Substrate (BCRP [2]): not involved; also recorded: not a substrate
Inhibitor (OCT1 [3]): did not significantly inhibit
Inhibitor (P-gp): did not significantly inhibit
Inhibitor (BCRP [4]): did not significantly inhibit
Share cleared by nonrenal clearance [5]: approximately 90%
Recovery in the urine (unchanged form) ([6]; intravenous 10 mg/kg, % of dose): 9.9%
Distribution volume ([6]; intravenous): 2657.2 ± 1396.9 mL/kg
Nonrenal clearance ([6]; intravenous): 88.2 mL/kg/min
Renal clearance ([6]; intravenous): 8.47 mL/kg/min
Systemic clearance ([6]; intravenous): 96.7 ± 44.2 mL/min/kg
Terminal half-life ([6]; intravenous): 19.3 ± 9.5 min
Stability [7]: remained stable
Stability [8]: remained stable
Stability [9]: remained stable
Effective concentration [10]: 0.2 to 4 µM
Histologic toxicity ([11]; 1–2.5 mg/kg): without histologic toxicity
Severity of colitis ([11]; dose 0.5 mg/kg): reduced the severity of colitis
